Measured values as given in patent publication US8399452B2, “Dibenzo[b,f][1,4]oxazepin-11-yl-N-hydroxybenzamides as HDAC inhibitors” (Methylgene Inc., priority 2006, dated 2013).
Where two headings read alike, the source gives them in different places.

Target: histone deacetylase (HDAC Enzyme)
Experiment: Inhibition of Histone Deacetylase Enzymatic Activity (Boc-Lys(Ac)-AMC, Fluor-de-Lys developer)
Format: biochemical
Description: The following protocol is used to assay the compounds of the invention.
The mixture is pre-incubated for 5 minutes at room temperature. The reaction is started by bringing the temperature to 37° C. and adding 16 μl substrate. Total reaction volume is 50 μl.
In the Tables 8, 9 and 10, A≦[…]<B≦0.1 μM; 0.1 μM<C≦1 μM; and 1 μM<D≦10 μM.

[1] = Table 9, read-out: HDAC Inhibition (IC50 μM) HDAC Enzyme
[2] = read-out: HDAC Inhibtion (IC50 μM) HDAC Enzyme
[3] = Table 10, read-out: HDAC Inhibition (IC50 μM) HDAC Enzyme

SMILES	IC50 [2]	further results
O=C(NO)c1cnc(N2C[C@@H]3C[C@H]2CN3C(=O)OCc2ccccc2)nc1 [(1S,4S)-benzyl 5-(5-(hydroxycarbamoyl)pyrimidin-2-yl)-2,5-diazabicyclo[2.2.1]heptane-2-carboxylate]	–	IC50 [1]: < 0.05 µM
O=C(NO)c1cnc(N2C[C@@H]3C[C@H]2CN3C(=O)OC2CCCC2)nc1 [(1S,4S)-cyclopentyl 5-(5-(hydroxycarbamoyl)pyrimidin-2-yl)-2,5-diazabicyclo[2.2.1]heptane-2-carboxylate]	–	IC50 [1]: < 0.05 µM
O=C(NO)c1cnc(N2C[C@@H]3C[C@H]2CN3C(=O)OCC2CC2)nc1 [(1S,4S)-cyclopropylmethyl 5-(5-(hydroxycarbamoyl)pyrimidin-2-yl)-2,5-diazabicyclo[2.2.1]heptane-2-carboxylate]	–	IC50 [1]: < 0.05 µM
CC(C)COC(=O)N1C[C@@H]2C[C@H]1CN2c1ncc(C(=O)NO)cn1 [(1S,4S)-isobutyl 5-(5-(hydroxycarbamoyl)pyrimidin-2-yl)-2,5-diazabicyclo[2.2.1]heptane-2-carboxylate]	–	IC50 [1]: < 0.05 µM
CC(C)OC(=O)N1C[C@@H]2C[C@H]1CN2c1ncc(C(=O)NO)cn1 [(1S,4S)-isopropyl 5-(5-(hydroxycarbamoyl)pyrimidin-2-yl)-2,5-diazabicyclo[2.2.1]heptane-2-carboxylate]	–	IC50 [1]: < 0.05 µM
O=C(NO)c1cnc(N2C[C@@H]3C[C@H]2CN3C(=O)OCc2cccnc2)nc1 [(1S,4S)-pyridin-3-ylmethyl 5-(5-(hydroxycarbamoyl)pyrimidin-2-yl)-2,5-diazabicyclo[2.2.1]heptane-2-carboxylate]	–	IC50 [1]: < 0.05 µM
CC(C)(C)OC(=O)N1C[C@@H]2C[C@H]1CN2c1ncc(C(=O)NO)cn1 [(1S,4S)-tert-butyl 5-(5-(hydroxycarbamoyl)pyrimidin-2-yl)-2,5-diazabicyclo[2.2.1]heptane-2-carboxylate]	–	IC50 [1]: < 0.05 µM
O=C(NO)c1cnc(N2C[C@@H]3C[C@H]2CN3C(=O)OC2CCOCC2)nc1 [(1S,4S)-tetrahydro-2H-pyran-4-yl 5-(5-(hydroxycarbamoyl)pyrimidin-2-yl)-2,5-diazabicyclo[2.2.1]heptane-2-carboxylate]	–	IC50 [1]: < 0.05 µM
O=C(NO)c1cnc(N2CCN(C3=Nc4ccccc4Oc4ccc(Cl)cc43)CC2)nc1 [(E)-2-(4-(2-chlorodibenzo[b,f][1,4]oxazepin-11-yl)piperazin-1-yl)-N-hydroxypyrimidine-5-carboxamide]	< 0.05 µM	–
O=C(/C=C/c1ccc(CN2C(=O)c3cccnc3N(C3CC3)c3ccccc32)cc1)NO [(E)-3-(4-((11-cyclopropyl-5-oxo-5H-benzo[b]pyrido[2,3-e][1,4]diazepin-6(11H)-yl)methyl)phenyl)-N-hydroxyacrylamide]	–	IC50 [3]: < 0.05 µM
O=C(/C=C/c1ccc(CN2c3ccccc3C=Cc3ccccc32)cc1)NO [(E)-3-(4-(((Z)-5H-dibenzo[b,f]azepin-5-yl)methyl)phenyl)-N-hydroxyacrylamide]	–	IC50 [3]: 0.05 to 0.1 µM
O=C(/C=C/c1ccc2c(c1)C=Cc1ccccc1N2CC1CC1)NO [(E)-3-((Z)-5-(cyclopropylmethyl)-5H-dibenzo[b,f]azepin-2-yl)-N-hydroxyacrylamide]	–	IC50 [3]: 0.1 to 1 µM
O=C(NO)c1ccc(CCNC2=Nc3ccccc3Oc3ccccc32)cc1 [(E)-4-(2-(dibenzo[b,f][1,4]oxazepin-11-ylamino)ethyl)-N-hydroxybenzamide]	0.1 to 1 µM	–
O=C(NO)c1ccc(CNC2=Nc3ccccc3N(C3CC3)c3ccccc32)cc1 [(E)-4-((5-cyclopropyl-5H-dibenzo[b,e][1,4]diazepin-11-ylamino)methyl)-N-hydroxybenzamide]	0.1 to 1 µM	–
O=C(NO)c1ccc(CNC2=Nc3ccccc3Oc3ccccc32)cc1 [(E)-4-((dibenzo[b,f][1,4]oxazepin-11-ylamino)methyl)-N-hydroxybenzamide]	< 0.05 µM	–
O=C(NO)c1ccc(C2=Nc3ccccc3Oc3ccccc32)c(F)c1 [(E)-4-(dibenzo[b,f][1,4]oxazepin-11-yl)-3-fluoro-N-hydroxybenzamide]	1 to 10 µM	–
O=C(NO)c1ccc(C2=Nc3ccccc3Oc3ccccc32)o1 [(E)-5-(dibenzo[b,f][1,4]oxazepin-11-yl)-N-hydroxyfuran-2-carboxamide]	1 to 10 µM	–
O=C(NO)c1ccc(C2=Nc3ccccc3Oc3ccccc32)s1 [(E)-5-(dibenzo[b,f][1,4]oxazepin-11-yl)-N-hydroxythiophene-2-carboxamide]	< 0.05 µM	–
O=C(NO)c1ccc(C2=Nc3ccccc3Oc3ccccc32)nc1 [(E)-6-(dibenzo[b,f][1,4]oxazepin-11-yl)-N-hydroxynicotinamide]	0.1 to 1 µM	–
CN1C(=O)CN=C(c2ccccc2)c2ccc(/C=C/C(=O)NO)cc21 [(E)-N-hydroxy-3-((Z)-1-methyl-2-oxo-5-phenyl-2,3-dihydro-1H-benzo[e][1,4]diazepin-8-yl)acrylamide]	–	IC50 [3]: 0.1 to 1 µM
O=C(/C=C/c1ccc2c(c1)NC(=O)CN=C2c1ccccc1)NO [(E)-N-hydroxy-3-((Z)-2-oxo-5-phenyl-2,3-dihydro-1H-benzo[e][1,4]diazepin-8-yl)acrylamide]	–	IC50 [3]: 0.05 to 0.1 µM
O=C(NO)c1ccc(-c2ccc3c(c2)C(N2CCOCC2)=Nc2ccccc2O3)cc1 [(E)-N-hydroxy-4-(11-morpholinodibenzo[b,f][1,4]oxazepin-2-yl)benzamide]	< 0.05 µM	–
O=C(NO)c1cnc(N2CCC[C@H]2c2nc3ccccc3[nH]2)nc1 [(S)-2-(2-(1H-benzo[d]imidazol-2-yl)pyrrolidin-1-yl)-N-hydroxypyrimidine-5-carboxamide]	–	IC50 [3]: 0.1 to 1 µM

SMILES	IC50 [2]	further results
O=C(Cc1ccc(CN2c3ccccc3C=Cc3ccccc32)cc1)NO [(Z)-2-(4-((5H-dibenzo[b,f]azepin-5-yl)methyl)phenyl)-N-hydroxyacetamide]	–	IC50 [3]: 0.1 to 1 µM
O=C(CN1c2ccccc2C=Cc2ccccc21)NO [(Z)-2-(5H-dibenzo[b,f]azepin-5-yl)-N-hydroxyacetamide]	–	IC50 [3]: 1 to 10 µM
O=C(NO)c1cccc(CN2c3ccccc3C=Cc3ccccc32)c1 [(Z)-3-((5H-dibenzo[b,f]azepin-5-yl)methyl)-N-hydroxybenzamide]	–	IC50 [3]: 0.1 to 1 µM
O=C(NO)c1cccc(C2=Nc3ccccc3Oc3ccccc32)c1 [(Z)-3-(dibenzo[b,f][1,4]oxazepin-11-yl)-N-hydroxybenzamide]	0.1 to 1 µM	–
O=C(NO)c1ccc(C2=Nc3ccccc3Oc3cccc(F)c32)cc1 [(Z)-4-(1-fluorodibenzo[b,f][1,4]oxazepin-11-yl)-N-hydroxybenzamide]	< 0.05 µM	–
O=C(NO)c1ccc(C2=Nc3ccccc3Oc3ccc(Cl)cc32)cc1 [(Z)-4-(2-chlorodibenzo[b,f][1,4]oxazepin-11-yl)-N-hydroxybenzamide]	< 0.05 µM	–
COc1cc(F)cc2c1Oc1ccccc1N=C2c1ccc(C(=O)NO)cc1 [(Z)-4-(2-fluoro-4-methoxydibenzo[b,f][1,4]oxazepin-11-yl)-N-hydroxybenzamide]	< 0.05 µM	–
O=C(NO)c1ccc(C2=Nc3ccccc3Oc3ccc(F)cc32)cc1 [(Z)-4-(2-fluorodibenzo[b,f][1,4]oxazepin-11-yl)-N-hydroxybenzamide]	< 0.05 µM	–
O=C(NO)c1ccc(C2=Nc3ccccc3Oc3cc(F)ccc32)cc1 [(Z)-4-(3-fluorodibenzo[b,f][1,4]oxazepin-11-yl)-N-hydroxybenzamide]	0.1 to 1 µM	–
O=C(NO)c1ccc(C2=Nc3ccccc3Oc3c(F)cccc32)cc1 [(Z)-4-(4-fluorodibenzo[b,f][1,4]oxazepin-11-yl)-N-hydroxybenzamide]	0.1 to 1 µM	–
O=C(NO)c1ccc(C2=Nc3ccccc3N(C3CC3)c3ccc(F)cc32)cc1 [(Z)-4-(5-cyclopropyl-2-fluoro-5H-dibenzo[b,e][1,4]diazepin-11-yl)-N-hydroxybenzamide]	0.05 to 0.1 µM	–
CN(O)C(=O)c1ccc(C2=Nc3ccccc3N(C3CC3)c3ccccc32)cc1 [(Z)-4-(5-cyclopropyl-5H-dibenzo[b,e][1,4]diazepin-11-yl)-N-hydroxy-N-methylbenzamide]	1 to 10 µM	–
O=C(NO)c1ccc(C2=Nc3ccccc3N(C3CC3)c3ccccc32)cc1 [(Z)-4-(5-cyclopropyl-5H-dibenzo[b,e][1,4]diazepin-11-yl)-N-hydroxybenzamide]	0.1 to 1 µM	–
CCN1c2ccccc2N=C(c2ccc(C(=O)NO)cc2)c2ccccc21 [(Z)-4-(5-ethyl-5H-dibenzo[b,e][1,4]diazepin-11-yl)-N-hydroxybenzamide]	0.05 to 0.1 µM	–
O=C(NO)c1ccc(C2=Nc3ccccc3Cn3cccc32)cc1 [(Z)-4-(5H-benzo[e]pyrrolo[1,2-a][1,4]diazepin-11-yl)-N-hydroxybenzamide]	< 0.05 µM	–
O=C(NO)c1ccc(C2=Nc3ccccc3Nc3ccccc32)cc1 [(Z)-4-(5H-dibenzo[b,e][1,4]diazepin-11-yl)-N-hydroxybenzamide]	0.1 to 1 µM	–
O=C(CCCN1c2ccccc2C=Cc2ccccc21)NO [(Z)-4-(5H-dibenzo[b,f]azepin-5-yl)-N-hydroxybutanamide]	–	IC50 [3]: 1 to 10 µM
O=C(NO)c1ccc(C2=Nc3cccc(F)c3Oc3ccccc32)cc1 [(Z)-4-(6-fluorodibenzo[b,f][1,4]oxazepin-11-yl)-N-hydroxybenzamide]	0.05 to 0.1 µM	–
O=C1CN=C(c2ccc(C(=O)NO)cc2)c2cc(Br)sc2N1 [(Z)-4-(7-bromo-2-oxo-2,3-dihydro-1H-thieno[2,3-e][1,4]diazepin-5-yl)-N-hydroxybenzamide]	–	IC50 [3]: 0.1 to 1 µM
O=C(NO)c1ccc(C2=Nc3ccc(Cl)cc3Oc3ccccc32)cc1 [(Z)-4-(7-chlorodibenzo[b,f][1,4]oxazepin-11-yl)-N-hydroxybenzamide]	0.1 to 1 µM	–
N#Cc1ccc2c(c1)Oc1ccccc1C(c1ccc(C(=O)NO)cc1)=N2 [(Z)-4-(7-cyanodibenzo[b,f][1,4]oxazepin-11-yl)-N-hydroxybenzamide]	< 0.05 µM	–
O=C(NO)c1ccc(C2=Nc3cc(Cl)ccc3Nc3ccccc32)cc1 [(Z)-4-(8-chloro-5H-dibenzo[b,e][1,4]diazepin-11-yl)-N-hydroxybenzamide]	0.05 to 0.1 µM	–
O=C(NO)c1ccc(C2=Nc3cc(Cl)ccc3Oc3ccccc32)cc1 [(Z)-4-(8-chlorodibenzo[b,f][1,4]oxazepin-11-yl)-N-hydroxybenzamide]	0.1 to 1 µM	–
